This is an account of results in ChEMBL document CHEMBL1125364, “Thromboxane receptor antagonism combined with thromboxane synthase inhibition. 3. Pyridinylalkyl-substituted 8-[(arylsulfonyl)amino]octanoic acids” (J Med Chem, 1992).

Assay [1] is filed under the species Canis familiaris. Briefly: The compound was tested in vitro for its inhibitory activity against U 46619-induced contraction of saphenous vein in dog. The format is functional. The conditions noted are these: Canis lupus familiaris, read-out: pA2 (converted).
Assay [2] is filed under the species Homo sapiens. Briefly: The compound was tested in vitro for its inhibitory activity against U 46619-induced aggregation of human platelet rich plasma (PRP). The format is functional.
The species named for assay [3] is Homo sapiens. Briefly: The compound was tested in vitro for its inhibitory activity against U 46619-induced aggregation of washed human platelets. The format is functional.
In another assay the target is T1, Thromboxane-A synthase (Homo sapiens, UniProt P24557).
T1 sequence (P24557 whole entry): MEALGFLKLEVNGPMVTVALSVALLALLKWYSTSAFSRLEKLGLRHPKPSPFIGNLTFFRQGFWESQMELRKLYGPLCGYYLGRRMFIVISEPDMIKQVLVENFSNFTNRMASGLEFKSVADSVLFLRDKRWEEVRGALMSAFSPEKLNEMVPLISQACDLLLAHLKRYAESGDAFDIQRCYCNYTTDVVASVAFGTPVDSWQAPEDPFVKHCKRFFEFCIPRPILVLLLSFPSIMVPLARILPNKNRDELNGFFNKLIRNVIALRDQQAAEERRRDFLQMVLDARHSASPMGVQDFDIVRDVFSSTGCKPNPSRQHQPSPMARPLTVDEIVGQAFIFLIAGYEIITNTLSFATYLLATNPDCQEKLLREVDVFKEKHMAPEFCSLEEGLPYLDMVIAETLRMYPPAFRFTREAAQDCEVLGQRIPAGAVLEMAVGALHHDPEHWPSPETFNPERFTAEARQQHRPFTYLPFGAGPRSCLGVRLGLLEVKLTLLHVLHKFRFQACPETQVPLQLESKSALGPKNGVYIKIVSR
Briefly: The compound was tested in vitro for its inhibitory activity against thromboxane synthase A2 (TXA2).

For assay [4], the species on record is Canis familiaris. To be noted: Canis lupus familiaris; Saphenous vein; filed as agonist.
The species entered for assay [5] is Canis familiaris. Briefly: The compound was tested in vitro for its antagonistic activity against U 46619-induced contraction of saphenous vein in dog; agonist activity was observed at e-6 - e-7. The conditions noted are these: Canis lupus familiaris, filed as agonist.

Broadly, the IC50 is the concentration at which inhibition is half-maximal. For the compound `O=C(O)CCCCC(CCNS(=O)(=O)c1ccc(Cl)cc1)Cc1cccnc1` (centres undefined), in the assay filed under Canis familiaris [1], the Kb is 11.7 nM. Moreover, the 50% inhibitory concentration (IC50) in the assay listed under Homo sapiens [2] stood at 370 nM; in the assay filed under Homo sapiens [3], 117 nM; on Thromboxane-A synthase, 14 nM.

For the compound `O=C(O)CCCC(CCCNS(=O)(=O)c1ccc(Cl)cc1)CCc1cccnc1` (centres undefined), in the assay filed under Canis familiaris [1], the Kb is 1.74 nM. Besides, the IC50 in the assay listed under Homo sapiens [2] worked out at 4600 nM; in the assay filed under Homo sapiens [3] it was 220 nM; on Thromboxane-A synthase, 20 nM.

Take `O=C(O)CCCCCCC(NS(=O)(=O)c1ccc(Cl)cc1)c1cccnc1` (centres undefined): the concentration for half-maximal inhibition (IC50) in the assay filed under Homo sapiens [2] was 600 nM; in the assay filed under Homo sapiens [3], 27 nM; against Thromboxane-A synthase it was more than 500 nM. Moreover, the pA2 entry in the assay filed under Canis familiaris [4] was “Agonist”.

For the compound `O=C(O)CCC(CCCCNS(=O)(=O)c1ccc(Cl)cc1)CCCc1cccnc1` (centres undefined), the Kb in the assay listed under Canis familiaris [1] was 1.26 nM. For the same compound, the figures for the concentration for half-maximal inhibition (IC50) in the assay listed under Homo sapiens [2], in the assay listed under Homo sapiens [3] and against Thromboxane-A synthase were 390 nM, 19 nM and 2 nM, respectively.

Consider `O=C(O)CC(CCCCCNS(=O)(=O)c1ccc(Cl)cc1)CCCCc1cccnc1` (centres undefined), for which the IC50 in the assay listed under Homo sapiens [3] is 1390 nM; on Thromboxane-A synthase, 100 nM.

For the compound `O=C(O)C(CCCCCCNS(=O)(=O)c1ccc(Cl)cc1)CCCCCc1cccnc1` (centres undefined), the IC50 was 300 nM in the assay filed under Homo sapiens [3] and 4 nM at Thromboxane-A synthase.

On to `O=C(O)CCCCCC(CNS(=O)(=O)c1ccc(Cl)cc1)c1cccnc1` (centres undefined), for which the IC50 in the assay filed under Homo sapiens [2] was 280 nM; in the assay listed under Homo sapiens [3], 20 nM; against Thromboxane-A synthase it was 220 nM. Further, in the assay listed under Canis familiaris [5], the pA2 result was “Agonist”.
